According to patent US12048766B2, “Gamma polyglutamated tetrahydrofolates and uses thereof” (L.E.A.F. HOLDINGS GROUP LLC, priority 2018, dated 2024):

Key:
[1] = test system: HT-29 (colon cancer); experiment: CellTiter-Glo luminescent cell viability assay, HT-29; assay type: cell-based, human; settings: 48 hours, FIG. 3
Description: Luciferase luminescence were recorded for each well.

[2] = test system: AML12 liver cells; experiment: Toxicity on AML12 liver cells; assay type: cell-based; settings: all doses studied (16 to 128 nM); 48 hours; FIG. 14
Excerpt: (§1) Methodologies used for cell line AML12 (non-cancerous liver cells) and CCD841 (non-cancerous colon epithelial cells) are similar to the methods used for cancer cells.

[3] = test system: CCD841 colon epithelium cells; experiment: Toxicity on CCD841 colon epithelium cells; assay type: cell-based; settings: all concentrations tested (16 to 128 nM); 48 hours; FIG. 15
Excerpt: as §1

Compound	potency rank among test articles [1]	reduction in AML12 liver cell counts [2]	decrease in the number of CCD841 colon epithelium cells [3]
Nc1nc(=O)c2c(CCc3ccc(C(=O)N[C@@H](CCC(=O)N[C@@H](CCC(=O)N[C@@H](CCC(=O)N[C@@H](CCC(=O)N[C@@H](CCC(=O)N[C@@H](CCC(=O)O)C(=O)O)C(=O)O)C(=O)O)C(=O)O)C(=O)O)C(=O)O)cc3)c[nH]c2[nH]1 [gG6, pemetrexed L-gamma hexaglutamate]	least potent	–	–
Nc1nc2[nH]cc(CCc3ccc(C(=O)N[C@@H](CCC(=O)O)C(=O)O)cc3)c2c(=O)[nH]1 [pemetrexed]	–	approximately 40%	≥ 50%
